Where “and” joins values, the source holds several entries; their conditions need not be identical. Equal entries are not always repeated. Where two headings read alike, the source gives them in different places. Blank lines part the entries; values can stand above or below the molecule they belong to.
Columns and labels:
[1] = molecular target: T1, Oryza sativa P5C synthetase 2 (Oryza sativa subsp. japonica, UniProt O04226); assay: NADPH oxidation assay (full forward, physiological reaction of P5C synthetase); conditions: for concentrations found inhibitory (exceeding): level above which activity is reduced; for Vmax / Km: named substrate varied, Lineweaver-Burk plot; for Vmax: others fixed at 20mM glutamate, 30°C, pH 7.5; for Km: read-out: KM(app), others saturating (20mM glutamate, 4mM ATP, 0.4mM NADPH), ATP value from concentrations ≤4mM; for effect on P5CS2 activity (in words): increasing concentrations, range tested
T1 sequence (O04226 1-716): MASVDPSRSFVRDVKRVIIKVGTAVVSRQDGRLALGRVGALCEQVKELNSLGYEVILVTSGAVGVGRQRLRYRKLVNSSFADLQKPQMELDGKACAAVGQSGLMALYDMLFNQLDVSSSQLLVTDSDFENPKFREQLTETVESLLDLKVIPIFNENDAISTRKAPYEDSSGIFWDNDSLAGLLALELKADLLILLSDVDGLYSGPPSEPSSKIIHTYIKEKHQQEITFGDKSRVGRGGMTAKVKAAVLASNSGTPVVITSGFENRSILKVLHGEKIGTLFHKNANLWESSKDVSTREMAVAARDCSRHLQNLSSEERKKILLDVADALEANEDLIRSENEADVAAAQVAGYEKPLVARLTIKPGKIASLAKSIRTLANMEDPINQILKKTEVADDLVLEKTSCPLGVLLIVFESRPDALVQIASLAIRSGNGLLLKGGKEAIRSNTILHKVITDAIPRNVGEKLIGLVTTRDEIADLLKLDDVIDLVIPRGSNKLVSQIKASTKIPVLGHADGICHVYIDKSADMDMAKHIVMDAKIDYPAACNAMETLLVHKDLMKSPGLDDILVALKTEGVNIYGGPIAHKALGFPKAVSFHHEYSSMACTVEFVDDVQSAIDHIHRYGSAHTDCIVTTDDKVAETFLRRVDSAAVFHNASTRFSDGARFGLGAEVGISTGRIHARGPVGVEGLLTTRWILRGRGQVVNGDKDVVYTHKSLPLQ
Protocol: The physiological, forward reaction of P5C synthetase was measured by following the glutamate-dependent oxidation of NADPH in the presence of ATP. Aliquots of the purified enzyme preparations (0.5–1μg protein) were incubated in a final volume of 200μl with 20mML-glutamate, 4mM ATP, and 0.4mM NADPH in 50mM Tris-HCl buffer, pH 7.5. When aiming at the evaluation of the effect of chlorides on enzyme activity, Tris-HCl buffer concentration was lowered to 10mM, or replaced with 10mM potassium phosphate buffer, pH 7.5. Incubation proceeded at 30°C for up to 20min. The decrease of absorbance at 340nm was determined at 0.5min intervals against exact blanks in which glutamate had been omitted. Assays were either performed in cuvettes with 0.2 or 1cm pathlength (UVette; Eppendorf, Milan, Italy), or in 96-microwell plates. In the former case, OD340 was determined with a Novaspec plus spectrophotometer (Amersham Biosciences, Milan, Italy) equipped with an UVette adaptor. In the latter case, the plate was equilibrated at 30°C prior to enzyme addition, and absorbance was measured using a Ledetect plate reader (Labexim, Lengau, Austria) equipped with a LED plugin at 340nm. Each sample was carried out in triplicate (technical replications). Each determination was repeated with at least three different enzyme preparations (biological replications). Presented data refer to a single enzyme preparation, and are means±SE over technical replicates. Linear and non-linear regressions of data, as well as kinetic constant values, were computed using Prism 6 for Windows, version 6.03 (GraphPad Software, San Diego, CA, United States).

[2] = system: P5CS from V. aconitifolia; conditions: cited from earlier work; for Km: glutamyl kinase assay, ref Zhang et al., 1995
P5CS from A. thaliana = system: P5CS from A. thaliana; design: method as in Parre et al., 2010; conditions: half-reaction; ref Parre et al., 2010; cited from earlier work
[3] = substrate: N[C@@H](CCC(=O)O)C(=O)O; assay: purified protein, by the assay type; conditions: other: named substrate varied, others saturating (20mM glutamate, 4mM ATP, 0.4mM NADPH); Lineweaver-Burk plot; ATP value from concentrations ≤4mM; pH 7.5; 30.0 °C
Protocol: The physiological, forward reaction of P5C synthetase was measured by following the glutamate-dependent oxidation of NADPH in the presence of ATP. […] When aiming at the evaluation of the effect of chlorides on enzyme activity, Tris-HCl buffer concentration was lowered to 10mM, or replaced with 10mM potassium phosphate buffer, pH 7.5. Incubation proceeded at 30°C for up to 20min. The decrease of absorbance at 340nm was determined at 0.5min intervals against exact blanks in which glutamate had been omitted. Assays were either performed in cuvettes with 0.2 or 1cm pathlength (UVette; Eppendorf, Milan, Italy), or in 96-microwell plates. In the former case, OD340 was determined with a Novaspec plus spectrophotometer (Amersham Biosciences, Milan, Italy) equipped with an UVette adaptor. In the latter case, the plate was equilibrated at 30°C prior to enzyme addition, and absorbance was measured using a Ledetect plate reader (Labexim, Lengau, Austria) equipped with a LED plugin at 340nm. Each sample was carried out in triplicate (technical replications). Each determination was repeated with at least three different enzyme preparations (biological replications). […] Linear and non-linear regressions of data, as well as kinetic constant values, were computed using Prism 6 for Windows, version 6.03 (GraphPad Software, San Diego, CA, United States).

[4] = read-out: IC50 (concentration inhibiting activity by 50%), 20mM glutamate, 4mM ATP, 0.4mM NADPH, 50mM Tris-HCl pH 7.5, 30°C, non-linear regression
[5] = read-out: IC50 (concentration inhibiting activity by 50%), cations, added as chlorides, 10mM potassium phosphate buffer pH 7.5, Mg++ data relative to equimolar NaCl
[6] = IC50 (concentration inhibiting activity by 50%), 20mM glutamate, 4mM ATP, 0.4mM NADPH, 50mM Tris-HCl pH 7.5, 30°C, non-linear regression
[7] = IC50 (concentration inhibiting activity by 50%)

concentrations found inhibitory (exceeding) [1]: > 4 mM | IC50 [1, 4]: 9 mM and 9.06 mM
Molecule: Nc1ncnc2c1ncn2[C@@H]1O[C@H](COP(=O)(O)OP(=O)(O)O)[C@@H](O)[C@H]1O [ADP]

concentrations found inhibitory (exceeding) [1]: exceeding 4 mM | Vmax ([1]; 4mM ATP, 0.4mM NADPH): 17.96±0.46 nkat (mg protein)^−1 | Ki ([1]; read-out: KI value for ATP (substrate inhibition), fit to substrate inhibition model, 20mM glutamate, 0.4mM NADPH): 11.6 ± 5.1 mM | Km [1]: 760 µM and 764 µM
Molecule: Nc1ncnc2c1ncn2[C@@H]1O[C@H](COP(=O)(O)OP(=O)(O)OP(=O)(O)O)[C@@H](O)[C@H]1O [ATP]
Km [2]: 2700 µM | Km (P5CS from A. thaliana): 1500 µM

effect on P5CS2 activity up to 100mM (in words) [1]: ineffective
Molecule: NC(=O)C[C@H](N)C(=O)O [Asparagine]

effect on P5CS2 activity (in words) [1]: strong inhibitory effect | IC50 [1, 5]: 4.09 mM
Molecule: [Ca+2] [Ca^++]

effect on P5CS2 activity up to 100mM (in words) [1]: unable to interfere
Molecule: O=C(O)[C@H]1CCCN1 [D-proline]

concentrations found inhibitory (exceeding) [1]: higher than 20 mM
Molecule: O=P(O)(O)O [HPO4^−−]

Molecule: O=C(O)[C@@H]1CC(O)CN1 (stereo partly drawn) [L-4-hydroxyproline]
IC50 [1, 6]: 89.5 mM | effect on P5CS2 activity (in words) [1]: partial inhibition

Vmax ([1]; 4mM ATP, 0.4mM NADPH): 17.38±0.52 nkat (mg protein)^−1
Molecule: N[C@@H](CCC(=O)O)C(=O)O [L-Glu, L-glutamate]
Km [2]: 3600 µM

Molecule: O=C(O)[C@@H]1CCCN1 [L-proline]
IC50 ([2]; ref Hu et al., 1992, read-out: concentration giving 50%-inhibition): 6 mM | catalytic rate retained ([1]; 10mM proline): less than 20% | IC50 [1, 7]: 2.91 mM

inhibition of activity ([1]; Mg++ ions at 20mM): 25% | effect on P5CS2 activity (in words) [1]: strong inhibitory effect | IC50 [1, 5]: 34.8 mM
Molecule: [Mg+2] [Mg^++]

utilization as electron donor instead of NADPH ([1]; highest concentration tested 0.5mM): No detectable utilization
Molecule: NC(=O)C1=CN([C@@H]2O[C@H](COP(=O)(O)OP(=O)(O)OC[C@H]3O[C@@H](n4cnc5c(N)ncnc54)[C@H](O)[C@@H]3O)[C@@H](O)[C@H]2O)C=CC1 [NADH]

Vmax ([1]; 4mM ATP, 0.4mM NADPH): 18.36±0.64 nkat (mg protein)^−1 | Km [1]: 45 ± 4 µM
Molecule: NC(=O)C1=CN([C@@H]2O[C@H](COP(=O)(O)OP(=O)(O)OC[C@H]3O[C@@H](n4cnc5c(N)ncnc54)[C@H](OP(=O)(O)O)[C@@H]3O)[C@@H](O)[C@H]2O)C=CC1 [NADPH]

IC50 [1, 4]: 0.4 mM and 0.389 mM
Molecule: NC(=O)c1ccc[n+]([C@@H]2O[C@H](COP(=O)([O-])OP(=O)(O)OC[C@H]3O[C@@H](n4cnc5c(N)ncnc54)[C@H](OP(=O)(O)O)[C@@H]3O)[C@@H](O)[C@H]2O)c1 [NADP^+]

effect on P5CS2 activity (in words) [1]: completely ineffective
Molecule: NC(=O)c1ccc[n+]([C@@H]2O[C@H](COP(=O)([O-])OP(=O)(O)OC[C@H]3O[C@@H](n4cnc5c(N)ncnc54)[C@H](O)[C@@H]3O)[C@@H](O)[C@H]2O)c1 [NAD^+]

effect on P5CS2 activity (in words) [1]: did not exert any significant effect
Molecule: O=C(O)C1CCC=N1 (stereo not drawn) [P5C, δ^1-pyrroline-5-carboxylate]

effect on P5CS2 activity (in words) [1]: completely ineffective
Molecule: O=C(O)[C@@H]1CCCCN1 [Pipecolate, pipecolic acid]

IC50 [1]: 63.9 mM
Molecule: N=C(N)NCCC[C@H](N)C(=O)O [arginine]

Molecule: O=C(O)C1CCN1 (stereo not drawn) [azetidine-2-carboxylic acid]
IC50 [1, 6]: 11 mM | IC50 relative to proline (fold higher) ([1]; versus IC50 of L-proline): 3.8 fold

stimulation of P5CS2 activity ([1]; chlorides in the 10–100mM range): up to 40% | concentration range with stimulatory effect ([1]; chlorides of various cations): 10 to 100 mM
Molecule: Cl [chloride anions]

IC50 [1]: 89.7 mM | concentrations found inhibitory (exceeding) [1]: exceeding 10 mM
Molecule: NC(=O)CC[C@H](N)C(=O)O [glutamine]

effect on P5CS2 activity (in words) [1]: did not exert any significant effect
Molecule: O=P(O)(O)O [inorganic phosphate]

Molecule: NCCC[C@H](N)C(=O)O [ornithine]
IC50 [1, 7]: 52.6 mM | concentrations found inhibitory (exceeding) [1]: exceeding 2 mM

Molecule: O=P(O)(O)C1CCCN1 (stereo not drawn) [phosphonoproline]
IC50 [1, 6]: 42.2 mM | effect on P5CS2 activity (in words) [1]: partial inhibition

concentrations found inhibitory (exceeding) [1]: exceeding 100 mM
Molecule: [Na+] [sodium cations]

Molecule: O=C(O)CCC(=O)C(=O)O [α-ketoglutarate]
effect on P5CS2 activity up to 100mM (in words) [1]: ineffective

B1: Oryza sativa P5C synthetase 2 (Oryza sativa Japonica Group) (protein)
chain: MASVDPSRSFVRDVKRVIIKVGTAVVSRQDGRLALGRVGALCEQVKELNSLGYEVILVTSGAVGVGRQRLRYRKLVNSSFADLQKPQMELDGKACAAVGQSGLMALYDMLFNQLDVSSSQLLVTDSDFENPKFREQLTETVESLLDLKVIPIFNENDAISTRKAPYEDSSGIFWDNDSLAGLLALELKADLLILLSDVDGLYSGPPSEPSSKIIHTYIKEKHQQEITFGDKSRVGRGGMTAKVKAAVLASNSGTPVVITSGFENRSILKVLHGEKIGTLFHKNANLWESSKDVSTREMAVAARDCSRHLQNLSSEERKKILLDVADALEANEDLIRSENEADVAAAQVAGYEKPLVARLTIKPGKIASLAKSIRTLANMEDPINQILKKTEVADDLVLEKTSCPLGVLLIVFESRPDALVQIASLAIRSGNGLLLKGGKEAIRSNTILHKVITDAIPRNVGEKLIGLVTTRDEIADLLKLDDVIDLVIPRGSNKLVSQIKASTKIPVLGHADGICHVYIDKSADMDMAKHIVMDAKIDYPAACNAMETLLVHKDLMKSPGLDDILVALKTEGVNIYGGPIAHKALGFPKAVSFHHEYSSMACTVEFVDDVQSAIDHIHRYGSAHTDCIVTTDDKVAETFLRRVDSAAVFHNASTRFSDGARFGLGAEVGISTGRIHARGPVGVEGLLTTRWILRGRGQVVNGDKDVVYTHKSLPLQ
Km [3]: 2690 ± 190 µM
